Assay results reported in article PMC3166797 (Journal of medicinal chemistry, 2011).
Where two headings read alike, the source gives them in different places.

Key:
CYP1A2 = target: T1, CYP1A2 (Homo sapiens, UniProt P05177); assay: CYP450 enzyme inhibition, CYP1A2
T1 sequence (P05177 1-516): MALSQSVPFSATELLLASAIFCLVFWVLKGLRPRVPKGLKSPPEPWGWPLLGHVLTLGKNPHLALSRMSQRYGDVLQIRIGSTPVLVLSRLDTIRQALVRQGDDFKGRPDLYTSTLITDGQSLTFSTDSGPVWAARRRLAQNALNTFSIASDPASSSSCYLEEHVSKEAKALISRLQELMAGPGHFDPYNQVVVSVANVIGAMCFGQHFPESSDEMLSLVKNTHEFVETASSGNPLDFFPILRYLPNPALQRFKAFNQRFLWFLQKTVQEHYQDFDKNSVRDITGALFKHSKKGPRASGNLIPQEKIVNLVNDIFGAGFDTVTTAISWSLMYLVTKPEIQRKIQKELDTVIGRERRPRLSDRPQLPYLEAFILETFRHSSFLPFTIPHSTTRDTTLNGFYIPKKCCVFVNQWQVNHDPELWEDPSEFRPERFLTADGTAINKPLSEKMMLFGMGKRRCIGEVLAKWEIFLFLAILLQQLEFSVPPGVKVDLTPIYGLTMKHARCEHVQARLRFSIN

CYP2C9 = CYP2C9 (Homo sapiens, UniProt P11712); assay: CYP450 enzyme inhibition, CYP2C9; details: P450 2C9, CYP2C9 inhibition
CYP2C9, sequence (P11712 whole entry): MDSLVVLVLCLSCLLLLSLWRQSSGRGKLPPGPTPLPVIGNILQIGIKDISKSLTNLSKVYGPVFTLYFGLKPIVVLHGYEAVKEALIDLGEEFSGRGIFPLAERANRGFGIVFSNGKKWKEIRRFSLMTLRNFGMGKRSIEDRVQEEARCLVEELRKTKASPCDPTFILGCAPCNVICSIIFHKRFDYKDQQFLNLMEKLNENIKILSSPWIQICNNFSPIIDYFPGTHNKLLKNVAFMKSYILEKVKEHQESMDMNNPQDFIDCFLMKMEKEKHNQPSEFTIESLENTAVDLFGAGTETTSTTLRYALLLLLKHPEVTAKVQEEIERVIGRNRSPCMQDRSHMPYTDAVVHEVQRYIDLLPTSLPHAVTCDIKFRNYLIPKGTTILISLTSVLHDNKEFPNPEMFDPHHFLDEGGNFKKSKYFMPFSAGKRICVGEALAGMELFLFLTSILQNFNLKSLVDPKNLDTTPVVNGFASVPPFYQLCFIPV

CYP3A4 = CYP3A4 (Homo sapiens, UniProt P08684); assay: CYP450 enzyme inhibition, CYP3A4
CYP3A4, sequence (P08684 whole entry): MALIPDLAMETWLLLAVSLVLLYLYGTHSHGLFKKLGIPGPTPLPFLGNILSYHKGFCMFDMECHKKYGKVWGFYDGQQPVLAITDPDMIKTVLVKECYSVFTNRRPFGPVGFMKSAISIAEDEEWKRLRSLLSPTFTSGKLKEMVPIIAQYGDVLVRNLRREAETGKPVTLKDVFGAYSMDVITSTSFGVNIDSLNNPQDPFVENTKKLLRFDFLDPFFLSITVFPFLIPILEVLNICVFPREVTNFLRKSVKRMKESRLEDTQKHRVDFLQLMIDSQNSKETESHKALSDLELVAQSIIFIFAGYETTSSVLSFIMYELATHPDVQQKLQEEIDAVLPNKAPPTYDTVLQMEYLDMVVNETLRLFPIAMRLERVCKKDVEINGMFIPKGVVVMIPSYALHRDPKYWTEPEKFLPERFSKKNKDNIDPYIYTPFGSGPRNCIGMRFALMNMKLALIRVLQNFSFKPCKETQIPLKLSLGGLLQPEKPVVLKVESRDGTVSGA

CYP2D6 = CYP2D6 (Homo sapiens, UniProt P10635); assay: CYP450 enzyme inhibition, CYP2D6; details: P450 2D6, CYP2D6 inhibition
CYP2D6, sequence (P10635 whole entry): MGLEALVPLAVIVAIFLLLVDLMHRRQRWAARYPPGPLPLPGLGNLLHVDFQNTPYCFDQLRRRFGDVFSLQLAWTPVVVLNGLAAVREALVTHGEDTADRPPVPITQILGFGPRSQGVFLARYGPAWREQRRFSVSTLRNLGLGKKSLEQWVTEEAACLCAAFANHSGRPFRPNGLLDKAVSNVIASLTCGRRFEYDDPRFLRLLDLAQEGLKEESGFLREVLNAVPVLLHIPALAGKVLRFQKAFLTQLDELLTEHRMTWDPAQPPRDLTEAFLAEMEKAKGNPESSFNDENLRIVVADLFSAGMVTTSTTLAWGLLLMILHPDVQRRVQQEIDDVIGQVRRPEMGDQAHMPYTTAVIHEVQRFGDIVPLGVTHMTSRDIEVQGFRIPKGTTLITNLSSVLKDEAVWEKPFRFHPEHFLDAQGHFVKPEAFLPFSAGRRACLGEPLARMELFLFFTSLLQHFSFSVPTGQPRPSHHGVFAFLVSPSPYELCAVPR

microsomal stability = details: for Rat Clint: microsomal intrinsic clearance in vitro; for CLint scaled at 1 µM: rat, microsomes
rat mGlu4 = rat mGlu4 (Rattus norvegicus, UniProt P31423); assay: thallium flux in HEK cells expressing rat mGlu4 with GIRK channels; format: cell-based; details: maximal PAM response normalized to control PAM 1 (PHCCC); mean ± SEM
rat mGlu4, sequence (P31423 33-912): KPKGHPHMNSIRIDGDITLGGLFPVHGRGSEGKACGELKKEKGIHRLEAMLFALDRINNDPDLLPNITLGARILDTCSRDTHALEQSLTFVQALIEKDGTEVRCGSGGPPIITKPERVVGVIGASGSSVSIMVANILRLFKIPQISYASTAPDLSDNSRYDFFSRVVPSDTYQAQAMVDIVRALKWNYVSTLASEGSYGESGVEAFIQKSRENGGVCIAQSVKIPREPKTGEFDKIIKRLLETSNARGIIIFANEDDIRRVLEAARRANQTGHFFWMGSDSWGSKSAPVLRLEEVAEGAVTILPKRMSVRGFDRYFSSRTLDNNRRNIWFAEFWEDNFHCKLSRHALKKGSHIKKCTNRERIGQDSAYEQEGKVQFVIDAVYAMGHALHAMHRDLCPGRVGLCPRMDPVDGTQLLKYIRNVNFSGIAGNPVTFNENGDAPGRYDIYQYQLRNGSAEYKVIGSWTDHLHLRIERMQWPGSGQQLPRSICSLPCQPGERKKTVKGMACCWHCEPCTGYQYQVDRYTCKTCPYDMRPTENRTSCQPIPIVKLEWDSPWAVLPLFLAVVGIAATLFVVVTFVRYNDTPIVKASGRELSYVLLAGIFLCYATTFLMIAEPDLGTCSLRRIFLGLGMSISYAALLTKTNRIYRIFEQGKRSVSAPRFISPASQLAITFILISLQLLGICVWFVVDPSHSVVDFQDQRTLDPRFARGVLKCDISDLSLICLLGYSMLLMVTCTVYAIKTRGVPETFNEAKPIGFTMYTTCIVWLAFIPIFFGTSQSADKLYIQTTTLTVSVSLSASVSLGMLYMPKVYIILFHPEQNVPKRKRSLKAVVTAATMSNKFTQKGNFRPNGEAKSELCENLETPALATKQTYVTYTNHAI

human mGlu4 = human mGlu4 (Homo sapiens, UniProt Q14833); assay: cell-based
human mGlu4, sequence (Q14833 33-912): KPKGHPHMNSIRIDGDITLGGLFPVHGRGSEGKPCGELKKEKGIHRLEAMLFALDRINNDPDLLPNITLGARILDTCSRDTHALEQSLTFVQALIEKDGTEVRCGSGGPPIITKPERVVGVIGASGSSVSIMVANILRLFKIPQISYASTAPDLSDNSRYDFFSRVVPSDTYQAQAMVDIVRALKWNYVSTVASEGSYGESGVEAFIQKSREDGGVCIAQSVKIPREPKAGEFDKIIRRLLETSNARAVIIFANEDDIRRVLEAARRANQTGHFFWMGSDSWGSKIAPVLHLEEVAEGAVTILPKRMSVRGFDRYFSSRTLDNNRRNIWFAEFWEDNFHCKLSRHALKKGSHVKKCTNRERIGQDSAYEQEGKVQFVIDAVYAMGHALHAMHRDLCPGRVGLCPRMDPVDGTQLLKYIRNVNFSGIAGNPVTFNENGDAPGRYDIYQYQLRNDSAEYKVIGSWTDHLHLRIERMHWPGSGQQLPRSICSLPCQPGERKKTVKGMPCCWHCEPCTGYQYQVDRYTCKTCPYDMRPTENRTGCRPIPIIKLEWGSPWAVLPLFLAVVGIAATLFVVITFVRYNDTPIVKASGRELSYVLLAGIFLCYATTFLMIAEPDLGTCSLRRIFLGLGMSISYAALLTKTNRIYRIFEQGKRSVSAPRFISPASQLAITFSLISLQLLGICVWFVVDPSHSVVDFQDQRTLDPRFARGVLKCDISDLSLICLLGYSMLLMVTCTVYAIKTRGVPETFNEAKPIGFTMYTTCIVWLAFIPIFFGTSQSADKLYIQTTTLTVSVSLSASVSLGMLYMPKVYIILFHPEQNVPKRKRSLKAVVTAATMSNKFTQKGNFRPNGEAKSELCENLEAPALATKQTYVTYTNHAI

[1] = dosed systemically in a nontoxic vehicle; cited from earlier work
mGlu1 = details: cited from earlier work
[2] = tested on: acute rodent models of Parkinson's disease; details: icv injection or systemically in a 50% DMSO vehicle; cited from earlier work

Cc1ccccc1C(=O)Nc1ccc(NC(=O)c2ccccn2)cc1Cl [Compound 12a, N-(3-chloro-4-(2-methylbenzamido)phenyl)picolinamide]
IC50 (CYP1A2): > 30 µM | IC50 (CYP1A2; human): > 10 µM | IC50 (CYP2C9): 14.1 µM | IC50 (CYP3A4): > 30 µM | IC50 (CYP2D6): 12 µM | Rat Clint (microsomal stability): acceptable | CLint scaled at 1 µM (microsomal stability): 46.2 mL/min/kg

O=C(Nc1ccc(NC(=O)c2ccccc2Cl)c(F)c1)c1ccccn1 [Compound 10d]
CLint scaled at 1 µM (microsomal stability): 31.2 mL/min/kg

COc1cc(NC(=O)c2ccccn2)ccc1NC(=O)c1ccccc1Cl [Compound 9g, N-(4-(2-chlorobenzamido)-3-methoxyphenyl)picolinamide]
GluMax (%Cmpd 1), rat mGlu4 (rat mGlu4): 147.0 %Cmpd 1 | IC50 (CYP1A2): > 30 µM | IC50 (CYP2C9): 14.3 µM | IC50 (CYP3A4): > 30 µM | IC50 (CYP2D6): 12.8 µM | CLint scaled at 1 µM (microsomal stability): 42.6 mL/min/kg

O=C(Nc1ccc(NC(=O)c2ccccc2Cl)cc1)c1ccccn1 [Compound 10c]
EC50 (human mGlu4): 3.75 µM

COc1cc(NC(=O)c2nccs2)ccc1NC(=O)c1ccccc1Cl [Compound 9e]
GluMax (%Cmpd 1), rat mGlu4 (rat mGlu4): 133.9 %Cmpd 1 | Rat Clint (microsomal stability): poor metabolic stability | CLint scaled at 1 µM (microsomal stability): 185 mL/min/kg

COc1cc(NC(=O)c2cnccn2)ccc1NC(=O)c1ccccc1Cl [Compound 9h]
EC50 (human mGlu4): 0.0995 µM

O=C(Nc1ccc(NC(=O)c2ccc(F)cc2Cl)c(Cl)c1)c1ccccn1 [Compound 12d]
CLint scaled at 1 µM (microsomal stability): 54 mL/min/kg

O=C(Nc1ccc(NC(=O)c2ccccc2Cl)c(Cl)c1)c1ccccn1 [Compound 10a, N-(3-chloro-4-(2-chlorobenzamido)phenyl)picolinamide]
IC50 (CYP1A2): > 30 µM | IC50 (CYP2C9): 11.8 µM | IC50 (CYP3A4): > 30 µM | IC50 (CYP2D6): 13.1 µM | Rat Clint (microsomal stability): acceptable | CLint scaled at 1 µM (microsomal stability): 44.9 mL/min/kg

COc1ccccc1C(=O)n1ccc2cc(NC(=O)c3ccccn3)ccc21 [Compound 15]
Rat Clint (microsomal stability): poor metabolic stability | CLint scaled at 1 µM (microsomal stability): 605 mL/min/kg

COc1cc(NC(=O)c2ccccn2)ccc1Cl [Compound 3]
CNS penetration [1]: CNS penetrant

O=C(Nc1ccccc1)[C@]12C[C@H]1/C(=N\O)c1ccccc1O2 (stereo in doubt) [Compound 1, N-phenyl-7-(hydroxyimino)cyclopropa[b]chromen-1a-carboxamide]
activity at mGlu1 (mGlu1): partial antagonist activity | activity in acute rodent models of Parkinson's disease [2]: active

O=C(Nc1ccc(NC(=O)c2ccccc2Cl)c(C(F)(F)F)c1)c1ccccn1 [Compound 10b]
EC50 (human mGlu4): 0.556 µM
